According to US8569294B2, “2-(cyclic amino)-pyrimidone derivatives” (Mitsubishi Tanabe Pharma Corporation, priority 2006, dated 2013):

Target: T1, bovine cerebral TPK1 (Bos taurus, UniProt A0A3Q1MT31)
T1 construct: P-GS1 Phosphorylation by Bovine Cerebral TPK1; from tissue; host or cells: bovine cerebrum (brain)
Test: Inhibitory activity against P-GS1 phosphorylation by bovine cerebral TPK1
Assay type: biochemical
Details: 41.7 μM [γ-32P] ATP, 25° C., 2 hours
Description: Inhibitory Activity of the Medicament of the Present Invention Against P-GS1 Phosphorylation by Bovine Cerebral TPK1
A mixture containing 100 mM MES-sodium hydroxide (pH 6.5), 1 mM magnesium acetate, 0.5 mM EGTA, 5 mM β-mercaptoethanol, 0.02% Tween 20, 10% glycerol, 12 μg/ml P-GS1, 41.7 μM [γ-^32P] ATP (68 kBq/ml), bovine cerebral TPK1 and a compound shown in Table (a final mixture contained 1.7% DMSO deriving from a solution of a test compound prepared in the presence of 10% DMSO) was used as a reaction system. The phosphorylation was started by adding ATP, and the reaction was conducted at 25° C. for 2 hours, and then stopped by adding 21% perchloric acid on ice cooling. The reaction mixture was centrifuged at 12,000 rpm for 5 minutes and adsorbed on P81 paper (Whatmann), and then the paper was washed four times with 75 mM phosphoric acid, three times with water and once with acetone. The paper was dried, and the residual radioactivity was measured using a liquid scintillation counter.

T1 sequence (A0A3Q1MT31 1-419): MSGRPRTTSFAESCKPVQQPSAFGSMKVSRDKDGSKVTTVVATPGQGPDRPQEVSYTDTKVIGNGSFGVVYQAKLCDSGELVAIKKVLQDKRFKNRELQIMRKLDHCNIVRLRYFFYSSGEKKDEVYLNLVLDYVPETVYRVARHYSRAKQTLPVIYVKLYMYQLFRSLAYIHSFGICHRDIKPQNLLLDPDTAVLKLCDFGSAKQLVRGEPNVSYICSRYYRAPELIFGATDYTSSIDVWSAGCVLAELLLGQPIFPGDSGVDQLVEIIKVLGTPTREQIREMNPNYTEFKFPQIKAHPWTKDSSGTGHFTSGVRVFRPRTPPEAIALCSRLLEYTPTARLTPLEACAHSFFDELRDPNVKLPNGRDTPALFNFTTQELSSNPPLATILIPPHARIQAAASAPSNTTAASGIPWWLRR

Row | Compound | IC50 [nM]
1 | Cn1c(N2CCO[C@H]3c4ccccc4CC[C@@H]32)nc(-c2ccncc2F)cc1=O [B6] | 1.7
2 | Cn1c(N2CC3CCC2C(c2ccccc2)C3)nc(-c2ccncc2)cc1=O (centres unmarked) [B9] | 1.2
3 | COc1ccccc1NC1CC2CCC(C1)N2c1nc(-c2ccncc2F)cc(=O)n1C (centres unmarked) [B16] | 2.8
4 | C[C@@H]1COCCN1c1nc(-c2ccncc2F)cc(=O)n1C [B62] | 7
5 | Cn1c(N2C3CCCC2CC3)nc(-c2ccncc2F)cc1=O [B77] | 9.8
6 | Cn1c(N2CCN3CCc4ccccc4C3C2)nc(-c2ccncc2)cc1=O (centres unmarked) [B109, 2-(1,3,4,6,7,11b-Hexahydro-pyrazino[2,1-a]isoquinolin-2-yl)-3-methyl-6-pyridin-4-yl-3H-pyrimidin-4-one] | 14
7 | Cn1c(N2CCCC2Cc2ccccc2)nc(-c2ccncc2F)cc1=O (centres unmarked) [D95] | 5.6
8 | C[C@@H]1CN(c2ncccn2)CCN1c1nc(-c2ccncc2F)cc(=O)n1C [F56] | 2.2
9 | C[C@H](N)c1nc(-c2ccc(N3CCN(c4nc(-c5ccncc5)cc(=O)n4C)[C@H](C)C3)cc2)no1 [F148] | 2.6

Results, then the molecule that gave them:

Row | IC50 [nM] | Compound
10 | 4 | Cn1c(N2CCO[C@H]3CCCC[C@@H]32)nc(-c2ccncn2)cc1=O (racemic) [B69, 1-Methyl-2-((4aRS,8aRS)-trans-octahydro-benzo[1,4]oxazin-4-yl)-1H-[4,4′]bipyrimidinyl-6-one]
11 | 1.1 | COc1ccc2c(c1)CC[C@H]1[C@H]2OCCN1c1nc(-c2ccncc2F)cc(=O)n1C [B20]
12 | 1.5 | COc1cccc2c1CC[C@@H]1[C@H]2OCCN1c1nc(-c2ccncc2)cc(=O)n1C [B37]
13 | 2.5 | Cn1c(N2CCO[C@H]3c4ccccc4OC[C@H]32)nc(-c2ccncn2)cc1=O [B46]
14 | 14 | COc1ccccc1N1C[C@@H]2CN(c3nc(-c4ccncc4F)cc(=O)n3C)C[C@@H]2C1 [D16]
15 | 7.9 | COc1cccc(N[C@@H]2CCN(c3nc(-c4ccncn4)cc(=O)n3C)C2)c1 [D42]
16 | 1.4 | C[C@@H]1CN(c2ccccc2)CCN1c1nc(-c2ccncn2)cc(=O)n1C [F24]
17 | 2.4 | C[C@@H]1CN(C(=O)c2ccc(N(C)C)cc2)CCN1c1nc(-c2ccncn2)cc(=O)n1C [F69]
